Source: US4639541A, “Substituted phenylacetic acid iodopropargyl esters, biocidal agents containing same and process for manufacturing same” (priority 1984, dated 1987)

Assays:
[1] = test system: Alternaria tenuis; test: Spore germination test, Alternaria tenuis; format: cell-based; conditions: 48 hours, 20° C., vs untreated control
Description: (§1) 50 μl of a solution or suspension of an active ingredient according to the invention together with 50 μl of a spore suspension produced by washing spores of an agar culture with a nutrient solution that contained per liter 10 g of sugar, 1 g of glycol, 1 g of KH2 PO4 and 0.5 g of MgSO4 were introduced into the concave-ground portion of concave-ground microscope slides.
(§2) The microscope slides were stored at 20° C. for 48 hours in a Petri dish, the base of which was covered with a moistened filter paper.
(§3) Subsequently, the ratio of germinated and non-germinated spores was compared with an untreated control specimen.
(§4) The degree of activity was calculated as a percentage in accordance with the following formula: [formula]

[2] = test system: Fusarium nivale; test: Spore germination test, Fusarium nivale; format: cell-based; conditions: 48 hours, 20° C., vs untreated control
Description: as §1, §2, §3, §4

[3] = test system: Colletotrichum coffeanum; test: Spore germination test, Colletotrichum coffeanum; format: cell-based; conditions: 48 hours, 20° C., vs untreated control
Description: as §1, §2, §3, §4

[4] = test system: Verticillium dahliae; test: Spore germination test, Verticillium dahliae; format: cell-based; conditions: 48 hours, 20° C., vs untreated control
Description: as §1, §2, §3, §4

[5] = test system: Botrytis cinerea; test: Spore germination test, Botrytis cinerea; format: cell-based; conditions: 48 hours, 20° C., vs untreated control
Description: as §1, §2, §3, §4

[6] = test system: Penicillium glaucum; test: Spore germination test, Penicillium glaucum; format: cell-based; conditions: 48 hours, 20° C., vs untreated control
Description: as §1, §2, §3, §4

[7] = test system: Fusarium culmorum; test: Spore germination test, Fusarium culmorum; format: cell-based; conditions: 48 hours, 20° C., vs untreated control
Description: as §1, §2, §3, §4

[8] = test system: Botrytis cinerea; test: Fungicidal activity against Botrytis cinerea in broad beans; format: in vivo; conditions: 500 ppm spray, broad beans "Midget", after 6 days, 20° C., 95% humidity, vs untreated
Description: Broad beans of the "Midget" variety were grown to a height of approximately 10 cm. The plants were sprayed until dripping wet with spray liquors containing 500 ppm of active ingredient.
When the spray coating had dried, the plants were inoculated with a spore suspension of Botrytis cinerea. The plants were placed in a climatic cabinet at a constant 20° C. and an atmospheric humidity of 95%.
After 6 days, fungicidal activity was evaluated. The activity was ascertained in comparison with untreated specimens.
The degree of activity as a percentage was ascertained in accordance with the following formula [formula] The following were used as active ingredients: I 2-chloro-3,5-dinitrophenylacetic acid iodopropargyl ester

For `O=C(Cc1cc([N+](=O)[O-])c(Cl)cc1Cl)OCC#CI` [E], the “degree of activity (fungal toxicity with respect to fungal spores)” value (from here on “degree of activity”) ([1]; 1 ppm) was 100%, the “degree of activity” value ([1]; 2 ppm) was 100% and the “degree of activity” value ([1]; 4 ppm) was 100%. For the same molecule, the “degree of activity” value ([2]; 1 ppm) was 100%, the “degree of activity” value ([2]; 2 ppm) was 100% and the “degree of activity” value ([2]; 4 ppm) was 100%. The “degree of activity” value ([3]; 1 ppm) was 100%, the “degree of activity” value ([3]; 2 ppm) was 100% and the “degree of activity” value ([3]; 4 ppm) was 100%. The “degree of activity” value ([4]; 1 ppm) was 30%, the “degree of activity” value ([4]; 2 ppm) was 30% and the “degree of activity” value ([4]; 4 ppm) was 40%. For the same molecule, the “degree of activity” value ([5]; 1 ppm) was 30%, the “degree of activity” value ([5]; 2 ppm) was 30% and the “degree of activity” value ([5]; 4 ppm) was 40%. For the same molecule, the “degree of activity” value ([6]; 1 ppm) was 100%, the “degree of activity” value ([6]; 2 ppm) was 100% and the “degree of activity” value ([6]; 4 ppm) was 100%. The “degree of activity” value ([7]; 1 ppm) was 100%, the “degree of activity” value ([7]; 2 ppm) was 100% and the “degree of activity” value ([7]; 4 ppm) was 100%.

In the case of `O=C(Cc1ccc(Cl)cc1)OCC#CI` [A], the “degree of activity” value ([1]; 1 ppm) is reported as 80%, the “degree of activity” value ([1]; 2 ppm) is reported as 80% and the “degree of activity” value ([1]; 4 ppm) is reported as 90%. For the same molecule, the “degree of activity” value ([2]; 1 ppm) was 60%, the “degree of activity” value ([2]; 2 ppm) was 80% and the “degree of activity” value ([2]; 4 ppm) was 90%. The “degree of activity” value ([3]; 1 ppm) was 80%, the “degree of activity” value ([3]; 2 ppm) was 90% and the “degree of activity” value ([3]; 4 ppm) was 95%. The “degree of activity” value ([4]; 1 ppm) was 80%, the “degree of activity” value ([4]; 2 ppm) was 80% and the “degree of activity” value ([4]; 4 ppm) was 95%. For the same molecule, the “degree of activity” value ([5]; 1 ppm) was 80%, the “degree of activity” value ([5]; 2 ppm) was 80% and the “degree of activity” value ([5]; 4 ppm) was 90%. For the same molecule, the “degree of activity” value ([6]; 1 ppm) was 90%, the “degree of activity” value ([6]; 2 ppm) was 95% and the “degree of activity” value ([6]; 4 ppm) was 95%. The “degree of activity” value ([7]; 1 ppm) was 90%, the “degree of activity” value ([7]; 2 ppm) was 95% and the “degree of activity” value ([7]; 4 ppm) was 95%.

With `O=C(Cc1cc([N+](=O)[O-])cc([N+](=O)[O-])c1Cl)OCC#CI` [I] the “% Activity against Botrytis cinerea in broad beans” value (shortened to “% Activity against Botrytis cinerea”) [8] was 80%.

With `O=C(Cc1cc([N+](=O)[O-])c(Cl)c([N+](=O)[O-])c1Cl)OCC#CI` [G] the “degree of activity” value ([1]; 2 ppm) was 70%, the “degree of activity” value ([2]; 2 ppm) was 80% and the “degree of activity” value ([3]; 2 ppm) was 60%. The “degree of activity” value ([4]; 2 ppm) was 70%, the “degree of activity” value ([5]; 2 ppm) was 100% and the “degree of activity” value ([6]; 2 ppm) was 70%. For the same molecule, the “degree of activity” value ([7]; 2 ppm) was 70%.

With `O=C(Cc1ccc([N+](=O)[O-])cc1)OCC#CI` [F] the “degree of activity” value ([1]; 2 ppm) was 100%, the “degree of activity” value ([2]; 2 ppm) was 80% and the “degree of activity” value ([3]; 2 ppm) was 90%. The “degree of activity” value ([4]; 2 ppm) was 90%, the “degree of activity” value ([5]; 2 ppm) was 40% and the “degree of activity” value ([6]; 2 ppm) was 80%. The “degree of activity” value ([7]; 2 ppm) was 40%.

For `O=C(Cc1c(Cl)c([N+](=O)[O-])cc([N+](=O)[O-])c1Cl)OCC#CI` [K], the “% Activity against Botrytis cinerea” value [8] was 30%.

In the case of `O=C(Cc1c(Cl)cccc1Cl)OCC#CI` [C], the “degree of activity” value ([1]; 1 ppm) is reported as 95%, the “degree of activity” value ([1]; 2 ppm) is reported as 95% and the “degree of activity” value ([1]; 4 ppm) is reported as 95%. For the same molecule, the “degree of activity” value ([2]; 1 ppm) was 100%, the “degree of activity” value ([2]; 2 ppm) was 100% and the “degree of activity” value ([2]; 4 ppm) was 100%. The “degree of activity” value ([3]; 1 ppm) was 95%, the “degree of activity” value ([3]; 2 ppm) was 95% and the “degree of activity” value ([3]; 4 ppm) was 95%. The “degree of activity” value ([4]; 1 ppm) was 100%, the “degree of activity” value ([4]; 2 ppm) was 100% and the “degree of activity” value ([4]; 4 ppm) was 100%. For the same molecule, the “degree of activity” value ([5]; 1 ppm) was 95%, the “degree of activity” value ([5]; 2 ppm) was 95% and the “degree of activity” value ([5]; 4 ppm) was 100%. For the same molecule, the “degree of activity” value ([6]; 1 ppm) was 60%, the “degree of activity” value ([6]; 2 ppm) was 90% and the “degree of activity” value ([6]; 4 ppm) was 90%. For the same molecule, the “degree of activity” value ([7]; 1 ppm) was 95%, the “degree of activity” value ([7]; 2 ppm) was 95% and the “degree of activity” value ([7]; 4 ppm) was 95%.

For `O=C(OCC#CI)C(Cl)c1ccccc1` (centres unmarked) [D], the “degree of activity” value ([1]; 1 ppm) was 80%, the “degree of activity” value ([1]; 2 ppm) was 90% and the “degree of activity” value ([1]; 4 ppm) was 90%. For the same molecule, the “degree of activity” value ([2]; 1 ppm) was 60%, the “degree of activity” value ([2]; 2 ppm) was 80% and the “degree of activity” value ([2]; 4 ppm) was 90%. For the same molecule, the “degree of activity” value ([3]; 1 ppm) was 80%, the “degree of activity” value ([3]; 2 ppm) was 90% and the “degree of activity” value ([3]; 4 ppm) was 95%. The “degree of activity” value ([4]; 1 ppm) was 80%, the “degree of activity” value ([4]; 2 ppm) was 80% and the “degree of activity” value ([4]; 4 ppm) was 95%. The “degree of activity” value ([5]; 1 ppm) was 80%, the “degree of activity” value ([5]; 2 ppm) was 80% and the “degree of activity” value ([5]; 4 ppm) was 90%. The “degree of activity” value ([6]; 1 ppm) was 90%, the “degree of activity” value ([6]; 2 ppm) was 95% and the “degree of activity” value ([6]; 4 ppm) was 95%. For the same molecule, the “degree of activity” value ([7]; 1 ppm) was 90%, the “degree of activity” value ([7]; 2 ppm) was 95% and the “degree of activity” value ([7]; 4 ppm) was 95%.

With `Cc1cc(C)c(CC(=O)OCC#CI)c(C)c1` [L] the “% Activity against Botrytis cinerea” value [8] was 20%.

For `O=C(OCC#CI)C(Br)c1ccc(Cl)cc1` (centres unmarked) [B], the “degree of activity” value ([1]; 1 ppm) was 100%, the “degree of activity” value ([1]; 2 ppm) was 100% and the “degree of activity” value ([1]; 4 ppm) was 100%. The “degree of activity” value ([2]; 1 ppm) was 100%, the “degree of activity” value ([2]; 2 ppm) was 100% and the “degree of activity” value ([2]; 4 ppm) was 100%. For the same molecule, the “degree of activity” value ([3]; 1 ppm) was 100%, the “degree of activity” value ([3]; 2 ppm) was 100% and the “degree of activity” value ([3]; 4 ppm) was 100%. The “degree of activity” value ([4]; 1 ppm) was 100%, the “degree of activity” value ([4]; 2 ppm) was 100% and the “degree of activity” value ([4]; 4 ppm) was 100%. The “degree of activity” value ([5]; 1 ppm) was 100%, the “degree of activity” value ([5]; 2 ppm) was 100% and the “degree of activity” value ([5]; 4 ppm) was 100%. The “degree of activity” value ([6]; 1 ppm) was 100%, the “degree of activity” value ([6]; 2 ppm) was 100% and the “degree of activity” value ([6]; 4 ppm) was 100%. The “degree of activity” value ([7]; 1 ppm) was 100%, the “degree of activity” value ([7]; 2 ppm) was 100% and the “degree of activity” value ([7]; 4 ppm) was 100%.
